Source: PubChem BioAssay (NCI)
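Exposure lasted 48 hours, with cells grown in 96-well plates and compounds tested at five concentrations. TGI: total growth inhibition.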

What was measured:
Test in all cases: NCI-60 cell line screen, 48 h
786-0 renal = test system: 786-0 renal
A498 renal = test system: A498 renal
ACHN renal = test system: ACHN renal
BT-549 breast = test system: BT-549 breast
CAKI-1 renal = test system: CAKI-1 renal
CCRF-CEM leukemia = test system: CCRF-CEM leukemia
COLO 205 colon = test system: COLO 205 colon
DU-145 prostate = test system: DU-145 prostate
EKVX NSCLC = test system: EKVX NSCLC
HCC-2998 colon = test system: HCC-2998 colon
HCT-116 colon = test system: HCT-116 colon
HCT-15 colon = test system: HCT-15 colon
HL-60(TB) leukemia = test system: HL-60(TB) leukemia
HOP-62 NSCLC = test system: HOP-62 NSCLC
HOP-92 NSCLC = test system: HOP-92 NSCLC
HS 578T breast = test system: HS 578T breast
HT29 colon = test system: HT29 colon
IGROV1 ovarian = test system: IGROV1 ovarian
K-562 leukemia = test system: K-562 leukemia
KM12 colon = test system: KM12 colon
LOX IMVI melanoma = test system: LOX IMVI melanoma
M14 melanoma = test system: M14 melanoma
MALME-3M melanoma = test system: MALME-3M melanoma
MCF7 breast = test system: MCF7 breast
MDA-MB-231 breast = test system: MDA-MB-231 breast
MDA-MB-435 = test system: MDA-MB-435
MDA-N = test system: MDA-N
NCI-H226 lung = test system: NCI-H226 lung
NCI-H23 lung = test system: NCI-H23 lung
NCI-H460 lung = test system: NCI-H460 lung
NCI-H522 lung = test system: NCI-H522 lung
NCI/ADR-RES ovarian = test system: NCI/ADR-RES ovarian
OVCAR-3 ovarian = test system: OVCAR-3 ovarian
OVCAR-4 ovarian = test system: OVCAR-4 ovarian
OVCAR-5 ovarian = test system: OVCAR-5 ovarian
OVCAR-8 ovarian = test system: OVCAR-8 ovarian
PC-3 prostate = test system: PC-3 prostate
RPMI-8226 leukemia = test system: RPMI-8226 leukemia
RXF 393 renal = test system: RXF 393 renal
SF-268 CNS = test system: SF-268 CNS
SF-295 CNS = test system: SF-295 CNS
SF-539 CNS = test system: SF-539 CNS
SK-MEL-2 melanoma = test system: SK-MEL-2 melanoma
SK-MEL-28 melanoma = test system: SK-MEL-28 melanoma
SK-MEL-5 melanoma = test system: SK-MEL-5 melanoma
SK-OV-3 ovarian = test system: SK-OV-3 ovarian
SN12C renal = test system: SN12C renal
SNB-19 CNS = test system: SNB-19 CNS
SNB-75 CNS = test system: SNB-75 CNS
SR leukemia = test system: SR leukemia
SW-620 colon = test system: SW-620 colon
T-47D breast = test system: T-47D breast
TK-10 renal = test system: TK-10 renal
U251 CNS = test system: U251 CNS
UACC-257 melanoma = test system: UACC-257 melanoma
UACC-62 melanoma = test system: UACC-62 melanoma
UO-31 renal = test system: UO-31 renal
A549 NSCLC = test system: A549 NSCLC
MOLT-4 leukemia = test system: MOLT-4 leukemia

Compound: Cn1c(=O)c2nc3c(=O)n(C)c(=O)n(CC(N)=O)c3nc2n(C)c1=O
- TGI (786-0 renal): > 100 µM
- TGI (A498 renal): > 100 µM
- TGI (ACHN renal): > 100 µM
- TGI (BT-549 breast): > 100 µM
- TGI (CAKI-1 renal): > 100 µM
- TGI (CCRF-CEM leukemia): > 100 µM
- TGI (COLO 205 colon): > 100 µM
- TGI (DU-145 prostate): > 100 µM
- TGI (EKVX NSCLC): > 100 µM
- TGI (HCC-2998 colon): > 100 µM
- TGI (HCT-116 colon): > 100 µM
- TGI (HCT-15 colon): > 100 µM
- TGI (HL-60(TB) leukemia): > 100 µM
- TGI (HOP-62 NSCLC): > 100 µM
- TGI (HOP-92 NSCLC): > 100 µM
- TGI (HS 578T breast): > 100 µM
- TGI (HT29 colon): > 100 µM
- TGI (IGROV1 ovarian): > 100 µM
- TGI (K-562 leukemia): > 100 µM
- TGI (KM12 colon): > 100 µM
- TGI (LOX IMVI melanoma): > 100 µM
- TGI (M14 melanoma): > 100 µM
- TGI (MALME-3M melanoma): > 100 µM
- TGI (MCF7 breast): > 100 µM
- TGI (MDA-MB-231 breast): > 100 µM
- TGI (MDA-MB-435): > 100 µM
- TGI (MDA-N): > 100 µM
- TGI (NCI-H226 lung): > 100 µM
- TGI (NCI-H23 lung): > 100 µM
- TGI (NCI-H460 lung): > 100 µM
- TGI (NCI-H522 lung): > 100 µM
- TGI (NCI/ADR-RES ovarian): > 100 µM
- TGI (OVCAR-3 ovarian): > 100 µM
- TGI (OVCAR-4 ovarian): > 100 µM
- TGI (OVCAR-5 ovarian): > 100 µM
- TGI (OVCAR-8 ovarian): > 100 µM
- TGI (PC-3 prostate): > 100 µM
- TGI (RPMI-8226 leukemia): > 100 µM
- TGI (RXF 393 renal): > 100 µM
- TGI (SF-268 CNS): > 100 µM
- TGI (SF-295 CNS): > 100 µM
- TGI (SF-539 CNS): > 100 µM
- TGI (SK-MEL-2 melanoma): > 100 µM
- TGI (SK-MEL-28 melanoma): > 100 µM
- TGI (SK-MEL-5 melanoma): > 100 µM
- TGI (SK-OV-3 ovarian): > 100 µM
- TGI (SN12C renal): > 100 µM
- TGI (SNB-19 CNS): > 100 µM
- TGI (SNB-75 CNS): > 100 µM
- TGI (SR leukemia): > 100 µM
- TGI (SW-620 colon): > 100 µM
- TGI (T-47D breast): > 100 µM
- TGI (TK-10 renal): > 100 µM
- TGI (U251 CNS): > 100 µM
- TGI (UACC-257 melanoma): > 100 µM
- TGI (UACC-62 melanoma): > 100 µM
- TGI (UO-31 renal): > 100 µM

Compound: COc1ccc2c(c1)-c1c(c3cc(OC)ccc3n1CCCN(C)C)CC2
- TGI (786-0 renal): > 100 µM
- TGI (A498 renal): 31.3 µM
- TGI (A549 NSCLC): 50.6 µM
- TGI (ACHN renal): 35.9 µM
- TGI (BT-549 breast): 32.2 µM
- TGI (CAKI-1 renal): 28.1 µM
- TGI (CCRF-CEM leukemia): 14.1 µM
- TGI (COLO 205 colon): 5.9 µM
- TGI (DU-145 prostate): 33.4 µM
- TGI (EKVX NSCLC): 31.4 µM
- TGI (HCC-2998 colon): 10.2 µM
- TGI (HCT-116 colon): 51.1 µM
- TGI (HCT-15 colon): 32.1 µM
- TGI (HL-60(TB) leukemia): 55.3 µM
- TGI (HOP-62 NSCLC): 29.2 µM
- TGI (HOP-92 NSCLC): 33.8 µM
- TGI (HS 578T breast): 20.5 µM
- TGI (HT29 colon): 13.9 µM
- TGI (IGROV1 ovarian): > 36.2 µM
- TGI (K-562 leukemia): 13.2 µM
- TGI (KM12 colon): 21.8 µM
- TGI (LOX IMVI melanoma): 20.9 µM
- TGI (M14 melanoma): 4.8 µM
- TGI (MALME-3M melanoma): 5.47 µM
- TGI (MCF7 breast): 26.5 µM
- TGI (MDA-MB-231 breast): 30.5 µM
- TGI (MDA-MB-435): 15.1 µM
- TGI (MDA-N): 16 µM
- TGI (MOLT-4 leukemia): 30.9 µM
- TGI (NCI-H226 lung): 6.82 µM
- TGI (NCI-H23 lung): 37 µM
- TGI (NCI-H460 lung): 42.9 µM
- TGI (NCI-H522 lung): 25.7 µM
- TGI (NCI/ADR-RES ovarian): 31.4 µM
- TGI (OVCAR-3 ovarian): 29.6 µM
- TGI (OVCAR-4 ovarian): 30.8 µM
- TGI (OVCAR-5 ovarian): 28.4 µM
- TGI (OVCAR-8 ovarian): 30.7 µM
- TGI (PC-3 prostate): 25.3 µM
- TGI (RPMI-8226 leukemia): 26 µM
- TGI (RXF 393 renal): 20.2 µM
- TGI (SF-268 CNS): 26.2 µM
- TGI (SF-295 CNS): 16.8 µM
- TGI (SK-MEL-2 melanoma): 31 µM
- TGI (SK-MEL-28 melanoma): 13 µM
- TGI (SK-MEL-5 melanoma): 8.29 µM
- TGI (SK-OV-3 ovarian): 32.7 µM
- TGI (SN12C renal): 28.5 µM
- TGI (SNB-19 CNS): 34 µM
- TGI (SNB-75 CNS): 13.9 µM
- TGI (SR leukemia): 22.1 µM
- TGI (SW-620 colon): 32.1 µM
- TGI (T-47D breast): 24.8 µM
- TGI (TK-10 renal): 39.7 µM
- TGI (U251 CNS): 27 µM
- TGI (UACC-257 melanoma): 11.6 µM
- TGI (UACC-62 melanoma): 20.6 µM
- TGI (UO-31 renal): 26.7 µM
